According to patent publication US10251874B2, “Crystalline forms of a JAK inhibitor compound” (THERAVANCE BIOPHARMA R&D IP, LLC, priority 2017, dated 2019):

How the values were obtained:
Format in all cases: cell-based
[1] = system: IL-2 stimulated pSTAT5 in CD4+ T cells; assay: Assay 4: Inhibition of IL-2 stimulated pSTAT5 in CD4+ T cells; conditions: CD4+ T cells in human PBMCs, flow cytometry; read-out: pIC50, inhibition of IL-2 stimulated pSTAT5 (converted)
Method: The potency of the test compound for inhibition of interleukin-2 (IL-2)/anti-CD3 stimulated STATS phosphorylation was measured in CD4-positive (CD4+) T cells in human peripheral blood mononuclear cells (PBMCs) isolated from human whole blood (Stanford Blood Center) using flow cytometry. Because IL-2 signals through JAK, this assay provides a measure of JAK cellular potency.
CD4+T cells were identified using a […] (PE) conjugated anti-CD4 antibody (Clone RPA-T4, BD Biosciences), while an Alexa Fluor 647 conjugated anti-pSTAT5 antibody (pY694, Clone 47, BD Biosciences) was used to detect STATS phosphorylation.
(1) The protocol of Assay 3 paragraph (1) was followed with the exception that the cytokine stimulation with anti-CD3 was performed for 30 min instead of 24 h. […] After incubation, cells were washed twice in FACS buffer before being analyzed using a LSRII flow cytometer (BD Biosciences). To determine the inhibitory potency of the test compound in response to IL-^2/anti-CD3, the median fluorescent intensity (MFI) of pSTAT5 was measured in CD4+ T cells. IC50 values were determined from analysis of the inhibition curves of MFI vs compound concentration. Data are expressed as pIC50 (negative decadic logarithm IC50) values.

[2] = system: IFNγ induced CXCL10 secretion in EpiAirway tissue cultures; assay: Assay 15: IFNγ induced CXCL10 in human 3D airway cultures; conditions: 192 h, Day 8, average from 3 or 4 donors, read-out: % inhibition of IFNγ induced CXCL10 secretion (±STDV)
Method: EpiAirway tissue cultures were obtained from Mattek (AIR-100). Cultures were derived from asthmatic donors. In a cell culture insert, human derived tracheal/bronchial epithelial cells were grown and differentiated on a porous membrane support, allowing an air-liquid interface with warmed culture medium below the cells and a gaseous test atmosphere above. Tissues were cultured in maintenance media (Mattek, AIR-100-MM) in a 37° C., 5% CO2 humidified incubator. Four donors were tested. On Day 0, tissue cultures were treated with test compounds at 10 μM, 1 μM and/or 0.1 μM. Compounds were diluted in dimethyl sulfoxide (DMSO, Sigma) to a final concentration of 0.1%. DMSO at 0.1% was used as a vehicle control. Test compounds were incubated with cultures for 1 hour at 37° C., 5% CO2, followed by the addition of pre-warmed media containing IFNγ (R&D Systems) or IL-27 (R&D Systems) at a final concentration at 100 ng/ml. Tissue cultures were maintained for 8 days. Media was replaced every 2 days with fresh media containing compounds and IFNγ or IL-27. On Day 8, tissue cultures and supernatants were collected for analysis. […] Data is expressed as % Inhibition +/−standard deviation (±STDV). Percent inhibition was determined by compound inhibitory potency against IFNγ or IL-27 induced CXCL10 or CXCL9 secretion compared to vehicle treated cells. […]

[3] = system: IL-13 induced STAT6 phosphorylation in BEAS-2B human lung epithelial cells; assay: Assay 2: Cellular JAK potency assay: inhibition of IL-13 (AlphaScreen); conditions: BEAS-2B cells, read-out: pIC50, inhibition of IL-13 induced STAT6 phosphorylation (converted)
Method: The AlphaScreen JAM cellular potency assay was carried out by measuring interleukin-13 (IL-13, R&D Systems) induced STAT6 phosphorylation in BEAS-2B human lung epithelial cells (ATCC). The anti-STAT6 antibody (Cell Signaling Technologies) was conjugated to AlphaScreen acceptor beads (Perkin Elmer), while the anti-pSTAT6 (pTyr641) antibody (Cell Signaling Technologies) was biotinylated using EZ-Link Sulfo-NHS-Biotin (Thermo Scientific).
BEAS-2B cells were grown at 37° C. in a 5% CO2 humidified incubator in 50% DMEM/50% F-12 medium (Life Technologies) supplemented with 10% FBS (Hyclone), 100 U/mL penicillin, 100 μg/mL streptomycin (Life Technologies), and 2 mM
GlutaMAX (Life Technologies). On day 1 of the assay, cells were seeded at a 7,500 cells/well density in white poly-D-lysine-coated 384-well plates (Corning) with 25 μL medium, and were allowed to adhere overnight in the incubator. […] After a minimum of 2 h incubation, the assay plates were read on the EnVision plate reader. AlphaScreen luminescence signals were recorded and utilized to calculate the percent inhibition values based on DMSO and background controls.
For dose-response analysis, percent inhibition data were plotted vs. compound concentrations, and IC50 values were determined from a 4-parameter robust fit model with the Prism software. Results may also be expressed as the negative logarithm of the IC50 value, pIC50.

## CCc1cc(O)c(F)cc1-c1ccc2c(-c3nc4c([nH]3)CCN(C3CCN(C)CC3)C4)n[nH]c2c1 [Compound 1, 5-ethyl-2-fluoro-4-(3-(5-(1-methylpiperidin-4-yl)-4,5,6,7-tetrahydro-1H-imidazo[4,5-c]pyridin-2-yl)-1H-indazol-6-yl)phenol]
[1]
  IC50: ~20 nM
[2]; at 0.1 μM
  inhibition at 0.1 µM: 17%
[2]; at 10 μM
  inhibition at 10 µM: 99%
[3]
  IC50: 6.31 nM
